{"source": "patent US20120269793A1", "about": "“PHYTOESTROGENIC FORMULATIONS FOR ALLEVIATION OR PREVENTION OF HAIR LOSS” (University of Southern California, priority 2010, published 2012)", "key": {"[1]": {"biological_target": "T1, ERβ (Homo sapiens, UniProt Q92731)", "conditions": "cited from earlier work"}, "[2]": {"biological_target": "T2, ERα (Homo sapiens, UniProt P03372)", "T2 sequence (P03372 1-595)": "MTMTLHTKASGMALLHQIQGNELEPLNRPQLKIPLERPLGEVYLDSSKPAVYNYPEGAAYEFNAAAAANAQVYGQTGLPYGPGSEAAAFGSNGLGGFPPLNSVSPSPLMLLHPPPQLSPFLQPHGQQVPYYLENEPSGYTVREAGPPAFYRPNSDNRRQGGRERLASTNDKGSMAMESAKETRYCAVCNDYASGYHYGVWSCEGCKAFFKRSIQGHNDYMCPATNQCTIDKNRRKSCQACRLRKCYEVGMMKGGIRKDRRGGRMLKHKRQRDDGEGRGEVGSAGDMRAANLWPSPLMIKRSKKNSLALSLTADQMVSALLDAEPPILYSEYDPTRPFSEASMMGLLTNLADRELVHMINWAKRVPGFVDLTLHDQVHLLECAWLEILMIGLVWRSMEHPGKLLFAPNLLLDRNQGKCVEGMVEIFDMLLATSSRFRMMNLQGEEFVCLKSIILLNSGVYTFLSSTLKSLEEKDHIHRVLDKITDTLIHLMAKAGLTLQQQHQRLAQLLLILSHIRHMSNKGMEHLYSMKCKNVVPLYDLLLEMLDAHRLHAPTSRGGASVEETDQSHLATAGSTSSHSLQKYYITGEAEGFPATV", "conditions": "cited from earlier work"}, "[3]": {"biological_target": "T2, ERα", "experiment": "fluorescent polarization competitive binding assay, ERα", "set-up": "purchased PanVera Corp; host or cells: baculovirus expression", "conditions": "for IC50: class symbol NC"}, "[4]": {"biological_target": "T1, ERβ", "experiment": "fluorescent polarization competitive binding assay, ERβ", "set-up": "purchased PanVera Corp; host or cells: baculovirus expression", "conditions": "for IC50: class symbol NC"}}, "data": [{"compound": "Oc1ccc([C@H]2COc3cc(O)ccc3C2)cc1", "note": "[S-equol]", "values": [{"measurement": "Kd", "setting": "[1]", "result": 0.0007, "unit": "µM"}, {"measurement": "binding to ERβ relative to 17β-estradiol", "setting": "[1]", "result": "approximately 20%"}, {"measurement": "binding affinity for ERα compared to ERβ", "setting": "[2]", "result": 10, "unit": "fold less"}, {"measurement": "relative binding affinity for ERα compared to 17β-estradiol", "setting": "[2]", "result": 49.2, "unit": "fold less"}]}, {"compound": "CC(=O)[C@H]1CC[C@H]2[C@@H]3CCC4=CC(=O)CC[C@]4(C)[C@H]3CC[C@]12C", "note": "[progesterone, reference compound]", "values": [{"measurement": "binding to ERα (in words)", "setting": "[3]", "result": "does not bind"}, {"measurement": "binding to ERβ / the receptor (in words)", "setting": "[4]", "result": "does not bind"}]}, {"compound": "O=c1oc2cc(OCc3cccc(O)c3)ccc2c2c1CCC2", "note": "[Compd 10]", "values": [{"measurement": "IC50", "setting": "[3]", "result": "> 1000", "unit": "µM"}, {"measurement": "binding to ERβ / the receptor (in words)", "setting": "[4]", "result": "either very weak or no binding"}, {"measurement": "IC50", "setting": "[4]", "result": "> 1000", "unit": "µM"}]}, {"compound": "Cc1oc2cc(O)ccc2c(=O)c1-c1cc2ccccc2o1", "note": "[Compd 4]", "values": [{"measurement": "IC50", "setting": "[3]", "result": "> 1000", "unit": "µM"}, {"measurement": "binding to ERβ / the receptor (in words)", "setting": "[4]", "result": "either very weak or no binding"}, {"measurement": "IC50", "setting": "[4]", "result": "> 1000", "unit": "µM"}]}, {"compound": "Oc1ccc([C@@H]2COc3cc(O)ccc3C2)cc1", "note": "[R-equol]", "values": [{"measurement": "binding to ERβ, R-equol enantiomer, fold less", "setting": "[1]", "result": "approximately 100 fold less"}, {"measurement": "relative binding affinity for ERα compared to 17β-estradiol", "setting": "[2]", "result": 210.6, "unit": "fold less"}]}, {"compound": "Oc1ccc(C2COc3cc(O)ccc3C2)cc1", "note": "(stereo not shown) [Compd 2]", "values": [{"measurement": "IC50", "setting": "[3]", "result": "> 1000", "unit": "µM"}]}, {"compound": "O=c1nc2n(c3cc4ccccc4cc13)Cc1ccccc1-2", "note": "[Compd 12]", "values": [{"measurement": "binding to ERβ / the receptor (in words)", "setting": "[4]", "result": "either very weak or no binding"}]}]}
